This passage reports GI50 and IC50 results from US11834458B2, “Anti-cancer nuclear hormone receptor-targeting compounds” (Nuvation Bio Inc., priority 2021, dated 2023).

In one assay the test system is LNCap cells. As to the kind of experiment: Cell viability assay, LNCap. It counts as cell-based. The following applies: Homo sapiens, LNCaP, 144 h, read-out: LNCap (GI50, nM). An outline of the steps:
(§1)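 Cells seeded overnight at 37 °C, 5% CO2, with a T0 plate read at compound addition; compounds added in DMSO (final 0.1-0.2%) for 6 days. CellTiterGlo luminescence; inhibition calculated relative to day-0 and vehicle signals, giving GI50/IC50 values.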

The target of a further assay is GR (Homo sapiens (Human), UniProt P04150). Briefly: GR binding assay. The following applies: cytosol from IM-9 cells, 3H-Dexamethasone 1.5 nM, 4° C. 24 hrs. As for the experimental part:
GR binding assay: To assess GR binding, test compound (top dose 1 μM, 4 fold serial dilution, 8 point dose response) and control (dexamethasone) were transferred to the assay plate. Cytosol from IM-9 cells was added to the plate, followed by addition of radiolabeled ^3H-Dexamethasone at a final concentration of 1.5 nM. The plate was sealed, and the reaction was incubated at 300 rpm at 4° C. for 24 hrs. Radioligand absorption buffer (10 mM Tris-HCl, pH 7.4; 1.5 mM EDTA; 1 mM DTT; 0.25% charcoal; 0.0025% dextran) was then added to the plate, mixed, and incubated at 4° C. for 15 minutes. The plate was then centrifuged at […] for 30 minutes at 4° C. The supernatant was transferred to the scint-tube and Tri-carb was used for scintillation counting. The data was analyzed using GraphPadPrism v5.0 and binding IC50 was determined as the concentration where 50% inhibition of radioligand binding was observed.

A further assay has as its system T47D cells. As to the kind of experiment: Cell viability assay, T47D. The note with it: Homo sapiens, T47D, 144 h, read-out: T47D (GI50, nM). It counts as cell-based. As for the experimental part:
Cell viability assay: LNCap, 22Rv1, MCF7, MDAMB361, T47D, and IEC6 cells are seeded at a density of 500-2000 cells/well in 96 well plates, and a ‘T0’ (timepoint 0) was included along with the assay plate. The plates are then incubated at 37° C., 5% CO2 in a cell culture incubator overnight. On the next day, the ‘T0’ plate was assayed using CellTiterGlo (Promega, Inc) according to the manufacturer's instructions. The appropriate compounds are diluted in DMSO and added to the assay plate (final DMSO concentration of 0.1-0.2%) on the next day. The assay plates are incubated for 6 days at 37° C., 5% CO2. After the incubation period, the plates are assayed using CellTiterGlo (Promega, Inc) according to the manufacturer's instructions and luminescence was read on the EnVision plate reader. Inhibition of the tested compounds was determined by the following formula: Inhibition rate (%)=(1−(RLU compound−RLU day0)/(RLU control−RLU day0))*100%. GraphPadPrism was used to analyze the data and determine GI50/IC50 values.

In another assay the test system is IEC6 cells. As to the kind of experiment: Cell viability assay, IEC6. The following applies: Rattus norvegicus, IEC-6, 144 h, read-out: IEC-6 (IC50, nM). It counts as cell-based. The essentials: as §1
The next assay has as its target AR (Homo sapiens (Human), UniProt P10275, T878A). As to the kind of experiment: AR binding assay. As for the experimental part:
AR binding assay: To assess AR binding, test compound (top dose 10 μM, 4 fold serial dilution, 8 point dose response) and control (progesterone) were transferred to the assay plate. Cytosol from LnCaP cells was added to the plate, followed by addition of radiolabeled ^3H-R1881 at a final concentration of 1 nM. The plate was sealed, and the reaction was incubated at 300 rpm at 4° C. for 24 hrs. Radioligand absorption buffer (10 mM Tris-HCl, pH 7.4; 1.5 mM EDTA; 1 mM DTT; 0.25% charcoal; 0.0025% dextran) was then added to the plate, mixed, and incubated at 4° C. for 15 minutes. The plate was then centrifuged at 3000 rpm for 30 minutes at 4° C. The supernatant was transferred to the scint-tube and Tri-carb was used for scintillation counting. The data was analyzed using GraphPadPrism v5.0 and binding IC50 was determined as the concentration where 50% inhibition of radioligand binding was observed.

For assay [1], the target named is Progesterone PR-B receptors (Homo sapiens (Human), UniProt P06401). Briefly: PR binding assay. The note with it: human breast carcinoma T47D cells, 0.5 nM [3H]Progesterone, 20 hours at 4° C. As for the experimental part: PR binding assay: Progesterone PR-B receptors from human breast carcinoma T47D cells were used in modified Na2HPO4/NaH2PO4 buffer pH 7.4. Compounds were screened at a range of doses (Top dose 40 nM, 4 fold serial dilution, 8 point dose response) and dispensed into the assay plate. Supernatant of 1.2×10^5 cells aliquot were added to the assay plate and incubated with 0.5 nM [^3H]Progesterone for 20 hours at 4° C. Membranes were filtered and washed, the filters were then counted to determine [^3H]Progesterone specifically bound. Binding IC50 was determined as the concentration where 50% inhibition of radioligand binding was observed.

Assay [2] has as its target full-length androgen receptor (Homo sapiens (Human), UniProt P10275). As to the kind of experiment: AR antagonism assay. The note with it: HEK293 cells stably expressing full-length androgen receptor, testosterone 1 nM, 20 h; read-out: AR antagonism. It counts as cell-based. The procedure: AR antagonism assay: To evaluate AR antagonist activity, test compound was added to the assay plate (top dose 10 μM, 3 fold serial dilution, 10 point dose response). HEK293 cells stably expressing the full-length androgen receptor were seeded at a density of 20,000 cells/well in the assay plate. The assay plate was then incubated at room temperature for 10 minutes and at 37° C., 5% CO2 for 20 minutes. Testosterone was added to the assay plate at 1 nM final concentration and the assay plate incubated at 37° C., 5% CO2 for 20 h. After the incubation period, Steady-glo was added to the assay plate and mixed at room temperature for 20 minutes on an orbital shaker, before reading out on the EnVision plate reader.

Assay [3] concerns the target ligand binding domain of the glucocorticoid receptor (Homo sapiens (Human), UniProt P04150). As to the kind of experiment: GR antagonism assay. It counts as cell-based. The following applies: HEK293 cells stably expressing GR ligand binding domain, dexamethasone 1.5 nM, 20 h. The procedure:
GR antagonism assay: To evaluate GR antagonist activity, test compound was added to the assay plate (top dose 5 μM, 4 fold serial dilution, 8 point dose response). HEK293 cells stably expressing the ligand binding domain of the glucocorticoid receptor were seeded at a density of 40,000 cells/well in the assay plate. The assay plate was then incubated at 37° C., 5% CO2 for 30 minutes. Dexamethasone was added to the assay plate at 1.5 nM final concentration and the assay plate was incubated at 37° C., 5% CO2 for 20 h. After the incubation period, Dual-glo luciferase reagent was added to the assay plate and mixed at room temperature for 20 minutes on an orbital shaker, before reading out on the EnVision plate reader.

For assay [4], the target named is Progesterone Receptor (PR)-LBD (Homo sapiens (Human), UniProt P06401). As to the kind of experiment: PR coactivator antagonist assay. It counts as biochemical. The note with it: 2.5 nM PR-LBD and coactivator peptide, 10 nM progesterone-induced fluorescence response; read-out: PR antagonism. The procedure:
PR coactivator antagonist assay: Test compound (Top dose 10 μM, 4 fold serial dilution, 8 point dose response) and/or vehicle was incubated with the 2.5 nM Progesterone Receptor (PR)-LBD and coactivator peptide for 30 minutes at RT. Determination of the amount of complex formed was read spectrofluorimetrically (excitation: 337 nm, emission: 520/490 nm). Test compound-induced inhibition of 10 nM progesterone-induced fluorescence response by 50 percent or more (≥50%) indicates receptor antagonist activity.

Read-outs that look alike come from different tables or passages of the source. Bounds are passed on as bounds.

Sequence of Progesterone Receptor (PR)-LBD (P06401 679-913, species assumed): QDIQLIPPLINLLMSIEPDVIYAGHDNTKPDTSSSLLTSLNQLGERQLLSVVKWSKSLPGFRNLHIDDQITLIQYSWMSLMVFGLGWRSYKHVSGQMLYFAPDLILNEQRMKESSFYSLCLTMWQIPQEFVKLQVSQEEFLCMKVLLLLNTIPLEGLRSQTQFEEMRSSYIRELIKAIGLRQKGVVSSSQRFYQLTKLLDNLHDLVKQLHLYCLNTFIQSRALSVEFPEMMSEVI
Sequence of AR (P10275 whole entry T878A): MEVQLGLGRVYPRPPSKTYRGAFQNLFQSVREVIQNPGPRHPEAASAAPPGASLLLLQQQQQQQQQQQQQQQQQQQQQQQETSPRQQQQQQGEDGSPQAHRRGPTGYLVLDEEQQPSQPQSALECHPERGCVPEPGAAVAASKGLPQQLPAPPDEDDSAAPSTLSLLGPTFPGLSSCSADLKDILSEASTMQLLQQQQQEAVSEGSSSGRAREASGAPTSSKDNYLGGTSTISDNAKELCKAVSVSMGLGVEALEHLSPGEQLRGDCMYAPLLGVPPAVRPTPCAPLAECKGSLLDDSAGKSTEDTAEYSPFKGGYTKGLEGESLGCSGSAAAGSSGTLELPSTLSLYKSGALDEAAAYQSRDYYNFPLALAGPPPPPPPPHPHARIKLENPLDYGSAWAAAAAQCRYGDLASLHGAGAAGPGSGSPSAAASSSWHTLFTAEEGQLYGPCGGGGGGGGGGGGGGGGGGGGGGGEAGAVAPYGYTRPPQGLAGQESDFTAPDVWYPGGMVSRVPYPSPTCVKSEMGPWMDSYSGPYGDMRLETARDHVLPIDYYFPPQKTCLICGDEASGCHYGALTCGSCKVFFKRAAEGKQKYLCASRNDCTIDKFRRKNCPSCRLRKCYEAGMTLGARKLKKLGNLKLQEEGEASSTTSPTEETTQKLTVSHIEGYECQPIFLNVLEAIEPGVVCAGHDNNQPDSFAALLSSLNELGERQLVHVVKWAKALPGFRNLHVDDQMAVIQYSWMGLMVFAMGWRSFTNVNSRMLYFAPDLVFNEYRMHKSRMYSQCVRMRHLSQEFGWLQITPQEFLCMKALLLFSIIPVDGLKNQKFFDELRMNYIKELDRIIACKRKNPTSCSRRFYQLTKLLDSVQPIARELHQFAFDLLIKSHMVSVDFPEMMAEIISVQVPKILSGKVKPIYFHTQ
Sequence of GR (P04150 whole entry): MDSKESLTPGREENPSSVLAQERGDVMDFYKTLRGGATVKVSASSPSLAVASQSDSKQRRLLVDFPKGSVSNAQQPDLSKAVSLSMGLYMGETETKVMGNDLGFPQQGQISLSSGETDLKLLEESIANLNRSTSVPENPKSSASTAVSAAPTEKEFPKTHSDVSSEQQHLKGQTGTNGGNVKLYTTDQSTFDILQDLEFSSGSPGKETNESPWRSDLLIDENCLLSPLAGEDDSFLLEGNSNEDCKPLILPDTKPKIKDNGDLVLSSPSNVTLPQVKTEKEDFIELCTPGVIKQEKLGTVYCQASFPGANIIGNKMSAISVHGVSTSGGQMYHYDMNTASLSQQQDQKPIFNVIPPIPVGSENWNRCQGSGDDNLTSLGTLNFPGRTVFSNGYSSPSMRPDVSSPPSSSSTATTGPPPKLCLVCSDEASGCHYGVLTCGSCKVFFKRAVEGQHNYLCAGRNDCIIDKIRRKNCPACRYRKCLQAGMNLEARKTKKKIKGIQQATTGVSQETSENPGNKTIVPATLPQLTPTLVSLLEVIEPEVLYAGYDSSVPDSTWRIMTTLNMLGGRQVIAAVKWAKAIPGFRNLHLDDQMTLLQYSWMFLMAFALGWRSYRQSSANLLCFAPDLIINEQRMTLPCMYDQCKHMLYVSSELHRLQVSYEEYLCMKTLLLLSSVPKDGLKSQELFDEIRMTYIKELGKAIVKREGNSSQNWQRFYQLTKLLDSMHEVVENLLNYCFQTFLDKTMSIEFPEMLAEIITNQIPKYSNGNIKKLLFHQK
Sequence of full-length androgen receptor (P10275 whole entry): as the sequence (P10275 whole entry T878A) above, with A878T counted along it
Sequence of ligand binding domain of the glucocorticoid receptor (P04150 524-758): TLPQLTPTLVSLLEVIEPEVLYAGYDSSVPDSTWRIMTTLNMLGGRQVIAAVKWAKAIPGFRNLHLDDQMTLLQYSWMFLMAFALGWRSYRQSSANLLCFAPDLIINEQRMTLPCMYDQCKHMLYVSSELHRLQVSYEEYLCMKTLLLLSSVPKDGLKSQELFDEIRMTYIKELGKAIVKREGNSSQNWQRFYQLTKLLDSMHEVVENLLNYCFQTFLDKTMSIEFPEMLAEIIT
Sequence of Progesterone PR-B receptors (P06401 whole entry): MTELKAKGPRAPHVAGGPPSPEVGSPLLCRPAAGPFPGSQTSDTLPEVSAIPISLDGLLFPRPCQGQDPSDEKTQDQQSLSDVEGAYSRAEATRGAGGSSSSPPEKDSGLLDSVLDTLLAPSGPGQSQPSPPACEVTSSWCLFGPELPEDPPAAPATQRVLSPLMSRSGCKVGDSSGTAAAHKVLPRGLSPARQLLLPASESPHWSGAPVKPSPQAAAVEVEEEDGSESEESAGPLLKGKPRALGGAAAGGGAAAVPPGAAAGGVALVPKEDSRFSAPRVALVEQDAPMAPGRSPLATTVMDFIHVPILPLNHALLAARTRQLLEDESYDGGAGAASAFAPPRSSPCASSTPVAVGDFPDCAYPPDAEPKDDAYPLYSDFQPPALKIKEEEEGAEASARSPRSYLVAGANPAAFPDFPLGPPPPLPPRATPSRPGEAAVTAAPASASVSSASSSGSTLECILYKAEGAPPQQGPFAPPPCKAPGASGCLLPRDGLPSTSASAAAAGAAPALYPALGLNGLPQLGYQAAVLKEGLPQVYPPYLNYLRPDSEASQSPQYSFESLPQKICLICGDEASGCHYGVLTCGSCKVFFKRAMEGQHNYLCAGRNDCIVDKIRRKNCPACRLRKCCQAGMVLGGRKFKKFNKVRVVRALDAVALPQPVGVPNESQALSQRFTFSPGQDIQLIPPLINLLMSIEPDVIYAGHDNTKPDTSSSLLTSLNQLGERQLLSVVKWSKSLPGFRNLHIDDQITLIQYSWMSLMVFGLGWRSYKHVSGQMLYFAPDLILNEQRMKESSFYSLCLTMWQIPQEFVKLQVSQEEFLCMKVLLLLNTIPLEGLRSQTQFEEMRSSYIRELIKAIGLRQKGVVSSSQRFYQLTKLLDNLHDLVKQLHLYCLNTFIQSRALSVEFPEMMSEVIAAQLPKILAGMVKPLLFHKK

By GI50 is commonly meant the concentration at which growth is held to half of that of the control. Take `CC[C@@]1(O)C(=O)OCc2c1cc1n(c2=O)Cc2cc3c(CN(C)C)c(OC(=O)N4CCN(CCCCCCN(C)c5ccc([C@H]6C[C@@]7(C)[C@@H](CC[C@]7(OC(C)=O)C(C)=O)[C@@H]7CCC8=CC(=O)CCC8=C76)cc5)CC4)ccc3nc2-1` [Compound 5, (S)-10-((dimethylamino)methyl)-4-ethyl-4-hydroxy-3,14-dioxo-3,4,12,14-tetrahydro-1H-pyrano[3′,4′:6,7]indolizino[1,2-b]quinolin-9-yl 4-(6-((4-((8S,11R,13S,14S,17R)-17-acetoxy-17-acetyl-13-methyl-3-oxo-2,3,6,7,8,11,12,13,14,15,16,17-dodecahydro-1H-cyclopenta[a]phenanthren-11-yl)phenyl)(methyl)amino)hexyl)piperazine-1-carboxylate]: the GI50 with LNCap cells and with T47D cells was 10 to 500 nM each time. In addition, the IC50 is under 10 nM on GR; 501 to 1000 nM with IEC6 cells; 10 to 500 nM at AR; under 10 nM in assay [1]; over 1000 nM in [2]; 10 to 500 nM in [3]. Further, the IC50 in [4] is under 10 nM.

For `CCc1c2c(nc3ccc(OC(=O)N4CCN(C(=O)CCCCCN(C)c5ccc([C@H]6C[C@@]7(C)[C@@H](CC[C@]7(OC(C)=O)C(C)=O)[C@@H]7CCC8=CC(=O)CCC8=C76)cc5)CC4)cc13)-c1cc3c(c(=O)n1C2)COC(=O)[C@]3(O)CC` [Compound 3, (S)-4,11-diethyl-4-hydroxy-3,14-dioxo-3,4,12,14-tetrahydro-1H-pyrano[3′,4′:6,7]indolizino[1,2-b]quinolin-9-yl 4-(6-((4-((8S,11R,13S,14S,17R)-17-acetoxy-17-acetyl-13-methyl-3-oxo-2,3,6,7,8,11,12,13,14,15,16,17-dodecahydro-1H-cyclopenta[a]phenanthren-11-yl)phenyl)(methyl)amino)hexanoyl)piperazine-1-carboxylate], the GI50 in the assay on LNCap cells and in the assay with T47D cells was 10 to 500 nM throughout. Also, the IC50 on GR is under 10 nM; with IEC6 cells, 501 to 1000 nM; at AR (cytosol from LnCaP cells, 3H-R1881 1 nM, 4° C. 24 hrs, read-out: AR binding), under 10 nM; in [1] it was under 10 nM; in assay [2], 10 to 500 nM; in [3], 10 to 500 nM. The IC50 in [4] is under 10 nM.
